Tested on: P. falciparum
Settings: in vivo

“Asn-Pro-Asn-Ala-Asn-(Apro-Asn-Ala-Asn-Pro-Asn-Ala-Asn-Pro-Asn-Glu)cyclo-Asn-Pro-Asn-Ala attached to a PE moiety [UK39]” was tested, and the Antigenicity was “excellent”.
